Results from article PMC11527162, “Mutational analysis of Phanerochaete chrysosporium´s purine transporter” (PLOS ONE, 2024).
Where a chain is given by its changes, count along the chain named. Names and notes keep the numbering of the source.

B1: PhZ (Phanerodontia chrysosporium; L124M) (protein)
chain: MPIALTHRINAFVADSPVGRWFHLEGSGHPKERVGSRFLTELRAGLTTWAAMAYIISVNASIISDTGGTCVCTQPDLCVNDETYLSCVADVRRDLITSTAAVSALASFLMGLLANLPVGMAPGMGLNAYFTYSVVGFHGSGIITYREALAAVFLEGWFFFFLSLLGLRQWLARIMPQSLVMAVGAGIGLFIAFIGLSGGGLGVIGGDTTNLVGLGGCLPQYYTSPDLPNYCASHVLQSPTMWLGIFVGGVFTVFLMLYRVKGAILIGIFLTSIISWPRPTSVTYFPHTDTGDQAFDFFKQVVTFRPLKRIGNALDYNYSNGRVWYALITFLYVDILDTTGTLYSMAKFAGLRDPVTLDFENSTIAYCVDAFSISMGALMGTSPVTAFIESATGISEGGKTGLTAITTGFAFFISVFFAPIFASIPSWATGGALVIVGSLMIRNVRDINWDYVGDSVPAFLTLIIIPLTYNIAYGVIAGIISFVLINGLAWALRKVSGERFAPPNYDASEPWVIPPGSIVPAWMRFIAGRTGLARDAARERPADADVLEMEQHAHDAASASSLGKHVPAVAEPVTEKDD
notes: full length, 578 amino acids, from cDNA; C-terminal GFP fusion kept; expressed at the azgA locus of Aspergillus nidulans deltaZAC (azgA, uapA, uapC deleted)
B2: PhZ (Phanerodontia chrysosporium) (protein)
chain: B1 chain with M124L
notes: as for B1
B3: PhZ (Phanerodontia chrysosporium; T392A) (protein)
chain: B1 chain with M124L, T392A
notes: as for B1
B4: PhZ (Phanerodontia chrysosporium; A418V) (protein)
chain: B1 chain with M124L, A418V
notes: as for B1
B5: PhZ (Phanerodontia chrysosporium; S133T) (protein)
chain: B1 chain with M124L, S133T
notes: as for B1

Tests used:
PhZ [1] = molecular target: T1, PhZ (Phanerodontia chrysosporium, UniProt A0A1B2TT73, L124M); assay: competition with [3H]-hypoxanthine uptake in germinating A. nidulans conidia; assay type: cell-based; conditions: 0.2 uM [3H]-hypoxanthine, 37 °C
T1 construct: full length, 578 amino acids, from cDNA; C-terminal GFP fusion kept; expressed at the azgA locus of Aspergillus nidulans deltaZAC (azgA, uapA, uapC deleted)

PhZ [2] = molecular target: T2, PhZ (Phanerodontia chrysosporium, UniProt A0A1B2TT73, A418V); assay: as above; assay type: cell-based; conditions: 0.2 uM [3H]-hypoxanthine, 37 °C
T2 construct: full length, 578 amino acids, from cDNA; C-terminal GFP fusion kept; expressed at the azgA locus of Aspergillus nidulans deltaZAC (azgA, uapA, uapC deleted)
T2 sequence (A0A1B2TT73 entry or part of it A418V): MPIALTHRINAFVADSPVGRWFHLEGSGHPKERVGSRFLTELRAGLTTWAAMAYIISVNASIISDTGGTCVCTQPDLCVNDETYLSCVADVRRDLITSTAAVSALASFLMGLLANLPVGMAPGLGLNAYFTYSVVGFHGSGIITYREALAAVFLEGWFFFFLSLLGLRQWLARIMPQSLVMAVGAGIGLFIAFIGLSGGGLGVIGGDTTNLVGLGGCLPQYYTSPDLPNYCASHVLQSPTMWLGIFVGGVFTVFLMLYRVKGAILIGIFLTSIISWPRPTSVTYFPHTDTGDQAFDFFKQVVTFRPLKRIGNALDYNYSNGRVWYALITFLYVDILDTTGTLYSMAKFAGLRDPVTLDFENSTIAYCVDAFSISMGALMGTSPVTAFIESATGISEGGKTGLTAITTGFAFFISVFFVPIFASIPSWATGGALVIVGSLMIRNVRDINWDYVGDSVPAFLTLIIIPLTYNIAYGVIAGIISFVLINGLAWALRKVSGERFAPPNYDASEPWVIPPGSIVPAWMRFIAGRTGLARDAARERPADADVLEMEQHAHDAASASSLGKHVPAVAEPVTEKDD

[3] = substrate: O=c1[nH]cnc2nc[nH]c12; assay: inhibition of [3H]-hypoxanthine uptake by unlabelled hypoxanthine in germinating A. nidulans conidia; assay type: cell-based, Phanerodontia chrysosporium; conditions: 0.2 uM [3H]-hypoxanthine, 37 °C, minimal medium with nitrate, Km/i taken as equal to IC50 of unlabelled hypoxanthine
[4] = substrate: O=c1[nH]cnc2nc[nH]c12; assay: as above; assay type: cell-based, Phanerodontia chrysosporium; conditions: 0.2 uM [3H]-hypoxanthine, 37 °C, minimal medium with nitrate, Km/i taken as equal to IC50 of unlabelled hypoxanthine; remark: listed apart in the source
Excerpt: inhibition of [3H]-hypoxanthine uptake by unlabelled hypoxanthine in germinating A. nidulans conidia on PhZ | Dose-response curves for hypoxanthine are shown.

[5] = substrate: O=c1[nH]cnc2nc[nH]c12; assay: as above; assay type: cell-based, Phanerodontia chrysosporium; conditions: 0.2 uM [3H]-hypoxanthine, 37 °C, minimal medium with nitrate, Km/i taken as equal to IC50 of unlabelled hypoxanthine; remark: listed apart in the source
Excerpt: inhibition of [3H]-hypoxanthine uptake by unlabelled hypoxanthine in germinating A. nidulans conidia on PhZ | (A) PhZwt; (B-E) L124M, S133T, T392A and A418V mutants respectively.

Row | Molecule | % of initial uptake velocity with 1 mM competitor (PhZ [1]) | % of initial uptake velocity with 1 mM competitor (PhZ [2]) | Km [5] [µM] | further results
1 | Nc1nc2[nH]nnc2c(=O)[nH]1 [8-azaguanine] | L124M and S133T, show less [^3H]-hypoxanthine inhibition regarding PhZwt with all purines | the T392A and A418V mutants exhibited higher levels of inhibition |  | 
2 | Nc1ncnc2[nH]cnc12 [adenine] | L124M and S133T, show less [^3H]-hypoxanthine inhibition regarding PhZwt with all purines | the T392A and A418V mutants exhibited higher levels of inhibition |  | 
3 | Nc1nc2[nH]cnc2c(=O)[nH]1 [guanine] | L124M and S133T, show less [^3H]-hypoxanthine inhibition regarding PhZwt with all purines | the T392A and A418V mutants exhibited higher levels of inhibition |  | 
4 | B1 |  |  |  | Km [3]: 1.6 ± 0.3 µM
5 | B2 |  |  |  | Km [4]: 2.7 ± 0.2 µM
6 | B3 |  |  | 2.3 ± 0.3 | 
7 | B4 |  |  | 2.8 ± 0.4 | 
8 | B5 |  |  | 2.1 ± 0.4 | 
